Data reported in PMC6030159 (Scientific Reports, 2018).
“Also recorded” adds a separate entry of the source. Read-outs that look alike come from different tables or passages of the source.

Assays:
[1] = tested on: T1, BCL-XL; assay: MST binding to BCL-XL; settings: 3 µM MYCMI-6, BCL-XL titrated up to 10 μM
T1 construct: purchased Abcam
Experimental: MST was carried out on a Monolith NT.115 with blue/green filters, kindly provided by Luca Jovine, Karolinska Institutet Huddinge, according to manufacturer's protocol (NanoTemper). […] Titration of molecules was carried out in 16 PCR tubes into which a fixed concentration of fluorescent molecule was added. The mixture was applied to capillaries (standard treated, NanoTemper), and scanned in the Monolith NT.115 to measure initial fluorescence of molecule. MST was induced and fluorescence was measured during 40 seconds. Double measurements were carried out (MST power of 20% and 40%, or 40% and 60%) for each sample. Delta fluorescence or relative fluorescence of fluorescent molecule normalized to control vehicle was plotted against titrated molecule concentration. The protein labeling kit GREEN-NHS (NanoTemper) was used to label primary amines of proteins according to manufacture's protocol. page 5: Supplementary Figure Legends Supplemental Figure S1. Schematic presentations of MYC and MAX protein constructs. […] The cells were reseeded and treated with vehicle or 25 μM of each compound, after which fluorescence was measured 24 hours post-treatment and the YFP/CFP ratio calculated and normalized to DMSO-treated cells. […] (12.5 μM) and analyzed as described in C). […]

[2] = biological target: MXD1 (MAD1) bHLHZip (Homo sapiens, UniProt Q05195); assay: SPR binding to MXD1 (MAD1)
MXD1 (MAD1) bHLHZip, sequence (Q05195 56-137 limits assumed): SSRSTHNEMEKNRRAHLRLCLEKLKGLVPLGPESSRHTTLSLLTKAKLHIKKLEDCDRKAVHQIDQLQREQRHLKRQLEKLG
Experimental: (§1) The MYC SPR assay was carried out as described above with MYCbHLHZip immobilized to a level of 800–1000 RU. For kinetic binding experiments, a Langmuir 1:1 binding event was applied using the Biacore T200 Evaluation Software 2.0 (GE Healthcare) to determine association (ka) and dissociation (kd) constants of the compound and to calculate affinity (KD) by the formula; KD = kd/ka. Binding responses from equilibrium binding experiments were plotted against compound concentration and KD values were determined at 50% of the theoretical Rmax with the formula Rmax = (MW analyte/MW ligand) × immobilized ligand level on the chip (RU) × stoichiometry (1:1). Same coupling method described above was used to immobilize the control proteins. MAX was immobilized to approximately 2000 RU, MAD to 600 RU, BSA to 1000 RU, p53 to 3000 RU and BCL-XL, to 500 RU.

[3] = tested on: T2, p53 core protein; assay: SPR binding to p53
T2 construct: Truncated p53 core protein was a kind gift from Klas Wiman; gift from Klas Wiman, CCK, Karolinska Institutet
Experimental: as §1

[4] = tested on: T1, BCL-XL; assay: SPR binding to BCL-XL
Experimental: as §1

[5] = tested on: T1, BCL-XL; set-up: method as in PMID 23824742; settings: in vitro fluorescence polarization, BCL-XL:BAK; cited from earlier work
[6] = biological target: T3, MYC bHLHZip (Homo sapiens, UniProt P01106); assay: SPR direct binding to immobilized MYC
T3 construct: 6xHis (N); made in house; host or cells: E. coli BL21 (DE3), pET28a; purified in denaturing conditions
T3 sequence (P01106 367-447 limits assumed): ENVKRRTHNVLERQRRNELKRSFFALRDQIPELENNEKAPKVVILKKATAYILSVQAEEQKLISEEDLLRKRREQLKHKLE
Experimental: Further, MYCMI-6 binding to MAX, MXD1 (MAD1) (Figs 4C and S5C and D), p53 (Fig. 4D), BSA (Suppl. Fig. S5E) and YFP (data not shown) were negligible. Binding to BCL-XL was only 10% of the theoretical maximum at 2 μM MYCMI-6 (Suppl. Fig. S5F).
as §1

[7] = tested on: T4, MYC:MAX; assay: Gaussia luciferase complementation (GLuc) MYC:MAX; type: cell-based, human; settings: 25 μM, 17 hours, HEK293 cells
T4 construct: fused to full length MYC (MYC-GLuc-C) and MAX (MAX-GLuc-N), respectively; expressed in transfected cells; host or cells: HEK293
Experimental: The protein fragment complementation assay using the Gaussia luciferase has been described. 0.2–0.4 μg of each GLuc-construct (see Supplementary Information) together with 0.05–0.2 μg pCMV-Luc (Firefly luciferase) were transiently transfected into HEK293 or COS-7 cells in 6-well plates. 24 hours later cells were treated with compound (10–25 μM) or DMSO. After another 17 hours, the cells were harvested and lyzed in passive lysis buffer (Promega) supplemented with complete protease inhibitor (Roche). After 60 min incubation at room temperature 20 μM D-luciferin was added (substrate of Firefly luciferase) and luminescence was measured in a Lumat LB9501 (Berthold) or OmegaFluostar (BMG Labtech) luminometer. Directly after, Gaussia luciferase substrate Coelenterazine (Promega) was added to a final concentration of 20 μM in a mixture with “Stop n’ Glow” (Promega) and the luciferase activity was measured. The ratio between Gaussia and Firefly luciferase values were calculated and normalized to DMSO-treated control cells.

CCOc1ccc2nc3cc(/N=N/c4ccc(N)nc4N)ccc3c(N)c2c1 [MYCMI-6]
binding to BCL-XL (MST) [1]: did not bind; also recorded: did not observe any binding
binding to MXD1 (MAD1) (SPR) [2]: negligible
binding to p53 (SPR) [3]: negligible
fold lower affinity for BCL-XL than for MYC [4]: ≥ 5 fold
binding to BCL-XL, % of the theoretical maximum (SPR) ([4]; 2 μM MYCMI-6): 10%
concentration of binding to BCL-XL [5]: 14 nM
Kd ([6]; 1:1 Langmuir model, four kinetic experiments, read-out: KD for MYC bHLHZip, SPR kinetic experiments, average): 1600 ± 500 nM
Kd ([6]; 50% of Rmax, four equilibrium experiments, read-out: KD for MYC bHLHZip, SPR equilibrium binding plot): 1500 to 2000 nM
Kd ([6]; Langmuir 1:1, constant Rmax 43 RU, read-out: KD for MYC bHLHZip, SPR, one representative kinetic experiment): 2500 nM
kon ([6]; SPR, representative experiment, read-out: association rate ka): 9290 M⁻¹ s⁻¹
koff ([6]; SPR, representative experiment, read-out: dissociation rate kd): 0.0229 s⁻¹
MYC:MAX GLuc activity [7]: most potent
